Data from patent publication US9850283B2, “Macrocyclic inhibitors of the PD-1/PD-L1 and CD80(B7-1)/PD-L1 protein/protein interactions” (BRISTOL-MYERS SQUIBB COMPANY, priority 2013, dated 2017).
Positions of bridges follow the written chain, without caps; N, C: chain ends. Non-standard residues stand in square brackets, D forms with d. Residues, ends and D or L forms follow the SMILES beside them. Trp(7-Me) = Cc1cccc2c(C[C@H](N)C(=O)O)c[nH]c12; Bta = N[C@@H](Cc1csc2ccccc12)C(=O)O; cisHyp = O=C(O)[C@@H]1C[C@H](O)CN1; Hyp = O=C(O)[C@@H]1C[C@@H](O)CN1; NMeNle = CCCC[C@H](NC)C(=O)O; NMeA = CN[C@@H](C)C(=O)O; Orn = NCCC[C@H](N)C(=O)O; Dab = NCC[C@H](N)C(=O)O; Dap = NC[C@H](N)C(=O)O

What was measured:
[1] = target: T1, Human PD-L1/PD-1 (Homo sapiens, UniProt Q9NZQ7); assay: HTRF PD-1-Ig/PD-L1-His binding assay (human PD-L1); conditions: cluster symbol; read-out: HTRF IC50 cluster
T1 construct: made in house; host or cells: HEK293T
T1 sequence (Q9NZQ7 with tags, fused parts or gaps): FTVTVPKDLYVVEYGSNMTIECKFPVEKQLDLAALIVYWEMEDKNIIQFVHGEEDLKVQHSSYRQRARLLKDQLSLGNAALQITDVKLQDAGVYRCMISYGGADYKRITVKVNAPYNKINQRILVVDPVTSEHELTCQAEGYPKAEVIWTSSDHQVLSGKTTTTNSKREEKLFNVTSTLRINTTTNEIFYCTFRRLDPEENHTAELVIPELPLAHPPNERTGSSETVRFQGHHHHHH
Method in brief: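 The time-resolved fluorescence signal comes from Eu-cryptate anti-Ig (1 nM) and APC anti-His (20 nM) antibodies bound to a PD-1-Ig/PD-L1-His complex. Both partners lack transmembrane regions.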

[2] = target: T2, LK35.2-hPD-L1 cells / PE-labeled PD-1-Ig (Homo sapiens, UniProt Q9NZQ7); assay: LK35.2-hPD-L1 cell binding high-content screening assay; assay type: cell-based; conditions: cluster symbol; cell line of CBA not given (LK35.2-hPD-L1 or 293T-hPD-L1); read-out: CBA IC50 cluster
T2 construct: expressed in transfected cells; host or cells: LK35.2 mouse B cell line
T2 sequence (Q9NZQ7 19-290): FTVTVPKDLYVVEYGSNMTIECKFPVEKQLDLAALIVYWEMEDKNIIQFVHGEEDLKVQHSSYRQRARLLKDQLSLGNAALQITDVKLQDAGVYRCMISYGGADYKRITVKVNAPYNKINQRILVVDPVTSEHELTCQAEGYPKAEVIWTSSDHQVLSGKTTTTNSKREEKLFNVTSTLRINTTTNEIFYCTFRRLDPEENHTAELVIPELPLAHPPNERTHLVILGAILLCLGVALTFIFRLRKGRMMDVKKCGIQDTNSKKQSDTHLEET
Method in brief: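 Binding of PE-conjugated human PD-1-Ig (1 nM final) to human PD-L1 stably expressed on a mouse B-cell line (LK35.2) was measured by high-content imaging after washes. Compound and labeled PD-1-Ig were co-incubated 1 h at 37 °C with cells in RPMI/10% FCS.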

| IC50 [1] [nM] | IC50 [2] [nM] | Structure (SMILES) |
| --- | --- | --- |
| 6.76 to 30.3 | 0.158 to 4.71 | CCCC[C@H]1C(=O)N(C)[C@@H](CCCC)C(=O)N[C@@H](C)C(=O)N[C@H](C(=O)NCC(N)=O)CSCC(=O)N[C@@H](Cc2ccc(O)cc2)C(=O)N(C)[C@@H](C)C(=O)N[C@@H](CC(=O)O)C(=O)N2CCC[C@H]2C(=O)N[C@@H](CN)C(=O)N[C@@H](CC(C)C)C(=O)N2C[C@H](O)C[C@H]2C(=O)N[C@@H](Cc2c[nH]c3ccccc23)C(=O)N[C@@H](CO)C(=O)N[C@@H](Cc2c[nH]c3ccccc23)C(=O)N1C [Example 1138] ({CH2CO}-Y[NMeA]DP[Dap]L[Hyp]WSW[NMeNle][NMeNle]ACG-NH2; thioether N-14) |
| 0.385 to 6.74 | 0.158 to 4.71 | CCCC[C@H]1C(=O)N(C)[C@@H](CCCC)C(=O)N[C@@H](C)C(=O)N[C@H](C(=O)NCC(N)=O)CSCC(=O)N[C@@H](Cc2ccc(O)cc2)C(=O)N(C)[C@@H](C)C(=O)N[C@@H](CC(=O)O)C(=O)N2CCC[C@H]2C(=O)N[C@@H](Cc2cnc[nH]2)C(=O)N[C@@H](CCCN)C(=O)N2C[C@H](O)C[C@H]2C(=O)N[C@@H](Cc2c[nH]c3ccccc23)C(=O)N[C@@H](CO)C(=O)N[C@@H](Cc2c[nH]c3ccccc23)C(=O)N1C [Example 1140] ({CH2CO}-Y[NMeA]DPH[Orn][Hyp]WSW[NMeNle][NMeNle]ACG-NH2; thioether N-14) |
| 6.76 to 30.3 | 4.78 to 72.9 | CCCC[C@H]1C(=O)N(C)[C@@H](CCCC)C(=O)N[C@@H](CCCNC(=N)N)C(=O)N[C@H](C(=O)NCC(N)=O)CSCC(=O)N[C@@H](Cc2ccc(O)cc2)C(=O)N(C)[C@@H](C)C(=O)N[C@@H](CC(N)=O)C(=O)N2CCC[C@H]2C(=O)N[C@@H](C)C(=O)N[C@@H](CC(C)C)C(=O)N2C[C@@H](O)C[C@H]2C(=O)N[C@@H](Cc2c[nH]c3ccccc23)C(=O)N[C@@H](CO)C(=O)N[C@@H](Cc2c[nH]c3ccccc23)C(=O)N1C [Example 1142] ({CH2CO}-Y[NMeA]NPAL[cisHyp]WSW[NMeNle][NMeNle]RCG-NH2; thioether N-14) |
| > 30.5 | > 74.3 | CCCC[C@H]1C(=O)N(C)[C@@H](CCCC)C(=O)N[C@@H](CCCNC(=N)N)C(=O)N[C@H](C(=O)NCC(N)=O)CSCC(=O)N[C@@H](Cc2ccc(O)cc2)C(=O)N(C)[C@@H](C)C(=O)N[C@@H](CN)C(=O)N2CCC[C@H]2C(=O)N[C@@H](C)C(=O)N[C@@H](CC(C)C)C(=O)N2C[C@@H](O)C[C@H]2C(=O)N[C@@H](Cc2c[nH]c3ccccc23)C(=O)N[C@@H](CO)C(=O)N[C@@H](Cc2c[nH]c3ccccc23)C(=O)N1C [Example 1143] ({CH2CO}-Y[NMeA][Dap]PAL[cisHyp]WSW[NMeNle][NMeNle]RCG-NH2; thioether N-14) |
| > 30.5 | 4.78 to 72.9 | CCCC[C@H]1C(=O)N(C)[C@@H](CCCC)C(=O)N[C@@H](CCCNC(=N)N)C(=O)N[C@H](C(=O)NCC(N)=O)CSCC(=O)N[C@@H](Cc2ccc(O)cc2)C(=O)N(C)[C@@H](C)C(=O)N[C@@H](CC(N)=O)C(=O)N2CCC[C@H]2C(=O)N[C@@H](Cc2cnc[nH]2)C(=O)N[C@@H](CC(C)C)C(=O)N2CCC[C@H]2C(=O)N[C@@H](Cc2c[nH]c3ccccc23)C(=O)N[C@@H](CO)C(=O)N[C@@H](Cc2c[nH]c3c(C)cccc23)C(=O)N1C [Example 1144] ({CH2CO}-Y[NMeA]NPHLPWS[Trp(7-Me)][NMeNle][NMeNle]RCG-NH2; thioether N-14) |
| 6.76 to 30.3 | 0.158 to 4.71 | CCCC[C@H]1C(=O)N(C)[C@@H](CCCC)C(=O)N[C@@H](CCCN)C(=O)N[C@H](C(=O)NCC(N)=O)CSCC(=O)N[C@@H](Cc2ccc(O)cc2)C(=O)N(C)[C@@H](C)C(=O)N[C@@H](CC(N)=O)C(=O)N2CCC[C@H]2C(=O)N[C@@H](CN)C(=O)N[C@@H](CC(C)C)C(=O)N2C[C@@H](O)C[C@H]2C(=O)N[C@@H](Cc2c[nH]c3ccccc23)C(=O)N[C@@H](CO)C(=O)N[C@@H](Cc2c[nH]c3ccccc23)C(=O)N1C [Example 1145] ({CH2CO}-Y[NMeA]NP[Dap]L[cisHyp]WSW[NMeNle][NMeNle][Orn]CG-NH2; thioether N-14) |

The remaining lines, values behind:

| Structure (SMILES) | IC50 [1] [nM] | IC50 [2] [nM] |
| --- | --- | --- |
| CCCC[C@H]1C(=O)N(C)[C@@H](CCCC)C(=O)N[C@@H](CN)C(=O)N[C@H](C(=O)NCC(N)=O)CSCC(=O)N[C@@H](Cc2ccc(O)cc2)C(=O)N(C)[C@@H](C)C(=O)N[C@@H](CC(N)=O)C(=O)N2CCC[C@H]2C(=O)N[C@@H](Cc2cnc[nH]2)C(=O)N[C@@H](CC(C)C)C(=O)N2C[C@H](O)C[C@H]2C(=O)N[C@@H](Cc2c[nH]c3ccccc23)C(=O)N[C@@H](CO)C(=O)N[C@@H](Cc2c[nH]c3ccccc23)C(=O)N1C [Example 1132] | 6.76 to 30.3 | 0.158 to 4.71 |
| CCCC[C@H]1C(=O)N(C)[C@@H](CCCC)C(=O)N[C@@H](CCCNC(=N)N)C(=O)N[C@H](C(=O)NCC(N)=O)CSCC(=O)N[C@@H](Cc2ccc(O)cc2)C(=O)N(C)[C@@H](C)C(=O)N[C@@H](CC(N)=O)C(=O)N2CCC[C@H]2C(=O)N[C@@H](Cc2cnc[nH]2)C(=O)N[C@@H](CC(C)C)C(=O)N2C[C@H](O)C[C@H]2C(=O)N[C@@H](Cc2c[nH]c3ccccc23)C(=O)N[C@@H](CCCN)C(=O)N[C@@H](Cc2c[nH]c3ccccc23)C(=O)N1C [Example 1133] ({CH2CO}-Y[NMeA]NPHL[Hyp]W[Orn]W[NMeNle][NMeNle]RCG-NH2; thioether N-14) | 6.76 to 30.3 | 0.158 to 4.71 |
| CCCC[C@H]1C(=O)N(C)[C@@H](CCCC)C(=O)N[C@@H](CCCNC(=N)N)C(=O)N[C@H](C(=O)NCC(N)=O)CSCC(=O)N[C@@H](Cc2ccc(O)cc2)C(=O)N(C)[C@@H](C)C(=O)N[C@@H](CC(N)=O)C(=O)N2CCC[C@H]2C(=O)N[C@@H](Cc2cnc[nH]2)C(=O)N[C@@H](CC(C)C)C(=O)N2C[C@H](O)C[C@H]2C(=O)N[C@@H](Cc2c[nH]c3ccccc23)C(=O)N[C@@H](CCN)C(=O)N[C@@H](Cc2c[nH]c3ccccc23)C(=O)N1C [Example 1134] ({CH2CO}-Y[NMeA]NPHL[Hyp]W[Dab]W[NMeNle][NMeNle]RCG-NH2; thioether N-14) | 6.76 to 30.3 | 0.158 to 4.71 |
| CCCC[C@H]1C(=O)N(C)[C@@H](CCCC)C(=O)N[C@@H](CCCNC(=N)N)C(=O)N[C@H](C(=O)NCC(N)=O)CSCC(=O)N[C@@H](Cc2ccc(O)cc2)C(=O)N(C)[C@@H](C)C(=O)N[C@@H](CC(N)=O)C(=O)N2CCC[C@H]2C(=O)N[C@@H](Cc2cnc[nH]2)C(=O)N[C@@H](CC(C)C)C(=O)N2C[C@H](O)C[C@H]2C(=O)N[C@@H](Cc2c[nH]c3ccccc23)C(=O)N[C@@H](CN)C(=O)N[C@@H](Cc2c[nH]c3ccccc23)C(=O)N1C [Example 1135] ({CH2CO}-Y[NMeA]NPHL[Hyp]W[Dap]W[NMeNle][NMeNle]RCG-NH2; thioether N-14) | 6.76 to 30.3 | 0.158 to 4.71 |
| CCCC[C@H]1C(=O)N(C)[C@@H](CCCC)C(=O)N[C@@H](CCCNC(=N)N)C(=O)N[C@H](C(=O)NCC(N)=O)CSCC(=O)N[C@@H](Cc2ccc(O)cc2)C(=O)N2CCC[C@H]2C(=O)N[C@@H](CC(N)=O)C(=O)N2CCC[C@H]2C(=O)N[C@@H](Cc2cnc[nH]2)C(=O)N[C@@H](CC(C)C)C(=O)N2CCC[C@H]2C(=O)N[C@@H](Cc2c[nH]c3ccccc23)C(=O)N[C@@H](CO)C(=O)N[C@@H](Cc2c[nH]c3ccccc23)C(=O)N1C [Example 1136] ({CH2CO}-YPNPHLPWSW[NMeNle][NMeNle]RCG-NH2; thioether N-14) | 6.76 to 30.3 | 4.78 to 72.9 |
| CCCC[C@H]1C(=O)N(C)[C@@H](CCCC)C(=O)N[C@@H](CCCNC(=N)N)C(=O)N[C@H](C(=O)NCC(N)=O)CSCC(=O)N[C@@H](Cc2ccc(O)cc2)C(=O)N2CCC[C@@H]2C(=O)N[C@@H](CC(N)=O)C(=O)N2CCC[C@H]2C(=O)N[C@@H](Cc2cnc[nH]2)C(=O)N[C@@H](CC(C)C)C(=O)N2CCC[C@H]2C(=O)N[C@@H](Cc2c[nH]c3ccccc23)C(=O)N[C@@H](CO)C(=O)N[C@@H](Cc2c[nH]c3ccccc23)C(=O)N1C [Example 1137] ({CH2CO}-Y[dP]NPHLPWSW[NMeNle][NMeNle]RCG-NH2; thioether N-14) | > 30.5 | > 74.3 |
| CCCC[C@H]1C(=O)N(C)[C@@H](CCCC)C(=O)N[C@@H](CCCN)C(=O)N[C@H](C(=O)NCC(N)=O)CSCC(=O)N[C@@H](Cc2ccc(O)cc2)C(=O)N(C)[C@@H](C)C(=O)N[C@@H](CC(N)=O)C(=O)N2CCC[C@H]2C(=O)N[C@@H](CN)C(=O)N[C@@H](CC(C)C)C(=O)N2C[C@H](O)C[C@H]2C(=O)N[C@@H](Cc2c[nH]c3ccccc23)C(=O)N[C@@H](CO)C(=O)N[C@@H](Cc2csc3ccccc23)C(=O)N1C [Example 1139] ({CH2CO}-Y[NMeA]NP[Dap]L[Hyp]WS[Bta][NMeNle][NMeNle][Orn]CG-NH2; thioether N-14) | 0.385 to 6.74 | 0.158 to 4.71 |
| CCCC[C@H]1C(=O)N(C)[C@@H](CCCC)C(=O)N[C@@H](CCCNC(=N)N)C(=O)N[C@H](C(=O)NCC(=O)O)CSCC(=O)N[C@@H](Cc2ccc(O)cc2)C(=O)N(C)[C@@H](C)C(=O)N[C@@H](CC(N)=O)C(=O)N2CCC[C@H]2C(=O)N[C@@H](CN)C(=O)N[C@@H](CC(C)C)C(=O)N2C[C@@H](O)C[C@H]2C(=O)N[C@@H](Cc2c[nH]c3ccccc23)C(=O)N[C@@H](CO)C(=O)N[C@@H](Cc2csc3ccccc23)C(=O)N1C [Example 1141] ({CH2CO}-Y[NMeA]NP[Dap]L[cisHyp]WS[Bta][NMeNle][NMeNle]RCG-OH; thioether N-14) | 0.385 to 6.74 | 0.158 to 4.71 |
